Assay results taken from ChEMBL document CHEMBL3997765 (Medchemcomm, 2016).

Legend:
[1] = biological target: Mitogen-activated protein kinase kinase kinase kinase 4 (Homo sapiens) (UniProt O95819); assay: Inhibition of recombinant human GST-tagged HGK catalytic domain (1 to 328 residues) expressed in baculovirus expression system at 10 uM by Z'-LYTE assay relative to control
[2] = biological target: Tyrosine-protein kinase ABL1 (Homo sapiens) (UniProt P00519); assay: Inhibition of recombinant human His-tagged ABL1 cytoplasmic domain expressed in baculovirus expression system at 10 uM by Z'-LYTE assay relative to control
[3] = biological target: Cyclin-dependent kinase 1/cyclin B1 (Homo sapiens) (UniProt P06493+P14635); assay: Inhibition of full length recombinant human His-tagged CDK1/Cyclin B expressed in baculovirus expression system at 10 uM by Z'-LYTE assay relative to control
[4] = biological target: Serine/threonine-protein kinase Chk1 (Homo sapiens) (UniProt O14757); assay: Inhibition of full length recombinant human His-tagged CHK1 expressed in baculovirus expression system at 10 uM by Z'-LYTE assay relative to control
[5] = biological target: Casein kinase I isoform gamma-2 (Homo sapiens) (UniProt P78368); assay: Inhibition of full length recombinant human His-tagged CK1gamma2 expressed in baculovirus expression system at 10 uM by Z'-LYTE assay relative to control
[6] = biological target: Dual specificity tyrosine-phosphorylation-regulated kinase 3 (Homo sapiens) (UniProt O43781); assay: Inhibition of full length recombinant human GST-tagged DYRK3 expressed in baculovirus expression system at 10 uM by Z'-LYTE assay relative to control
Dual specificity tyrosine-phosphorylation-regulated kinase 3 (Homo sapiens), sequence (O43781 whole entry, the tested form may be a part): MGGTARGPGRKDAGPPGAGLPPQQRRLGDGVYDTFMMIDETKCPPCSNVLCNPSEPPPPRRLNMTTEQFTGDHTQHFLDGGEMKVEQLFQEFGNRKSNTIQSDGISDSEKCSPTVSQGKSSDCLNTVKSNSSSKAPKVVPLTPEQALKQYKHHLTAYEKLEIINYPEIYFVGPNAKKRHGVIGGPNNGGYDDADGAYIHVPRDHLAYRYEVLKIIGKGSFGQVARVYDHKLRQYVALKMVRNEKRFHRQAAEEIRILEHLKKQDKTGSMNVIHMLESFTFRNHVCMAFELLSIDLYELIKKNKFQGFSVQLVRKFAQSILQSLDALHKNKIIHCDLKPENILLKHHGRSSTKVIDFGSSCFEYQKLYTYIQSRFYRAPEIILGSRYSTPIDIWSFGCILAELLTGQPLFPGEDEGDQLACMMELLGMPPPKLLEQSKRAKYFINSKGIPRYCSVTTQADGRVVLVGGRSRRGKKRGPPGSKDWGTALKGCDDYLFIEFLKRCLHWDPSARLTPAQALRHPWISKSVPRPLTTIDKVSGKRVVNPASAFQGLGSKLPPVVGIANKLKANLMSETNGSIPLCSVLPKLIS

[7] = biological target: Ephrin type-A receptor 2 (Homo sapiens) (UniProt P29317); assay: Inhibition of recombinant human GST-tagged EPHA2 cytoplasmic domain (560 to 976 residues) expressed in baculovirus expression system at 10 uM by Z'-LYTE assay relative to control
Ephrin type-A receptor 2 (Homo sapiens), sequence (P29317 whole entry, the tested form may be a part): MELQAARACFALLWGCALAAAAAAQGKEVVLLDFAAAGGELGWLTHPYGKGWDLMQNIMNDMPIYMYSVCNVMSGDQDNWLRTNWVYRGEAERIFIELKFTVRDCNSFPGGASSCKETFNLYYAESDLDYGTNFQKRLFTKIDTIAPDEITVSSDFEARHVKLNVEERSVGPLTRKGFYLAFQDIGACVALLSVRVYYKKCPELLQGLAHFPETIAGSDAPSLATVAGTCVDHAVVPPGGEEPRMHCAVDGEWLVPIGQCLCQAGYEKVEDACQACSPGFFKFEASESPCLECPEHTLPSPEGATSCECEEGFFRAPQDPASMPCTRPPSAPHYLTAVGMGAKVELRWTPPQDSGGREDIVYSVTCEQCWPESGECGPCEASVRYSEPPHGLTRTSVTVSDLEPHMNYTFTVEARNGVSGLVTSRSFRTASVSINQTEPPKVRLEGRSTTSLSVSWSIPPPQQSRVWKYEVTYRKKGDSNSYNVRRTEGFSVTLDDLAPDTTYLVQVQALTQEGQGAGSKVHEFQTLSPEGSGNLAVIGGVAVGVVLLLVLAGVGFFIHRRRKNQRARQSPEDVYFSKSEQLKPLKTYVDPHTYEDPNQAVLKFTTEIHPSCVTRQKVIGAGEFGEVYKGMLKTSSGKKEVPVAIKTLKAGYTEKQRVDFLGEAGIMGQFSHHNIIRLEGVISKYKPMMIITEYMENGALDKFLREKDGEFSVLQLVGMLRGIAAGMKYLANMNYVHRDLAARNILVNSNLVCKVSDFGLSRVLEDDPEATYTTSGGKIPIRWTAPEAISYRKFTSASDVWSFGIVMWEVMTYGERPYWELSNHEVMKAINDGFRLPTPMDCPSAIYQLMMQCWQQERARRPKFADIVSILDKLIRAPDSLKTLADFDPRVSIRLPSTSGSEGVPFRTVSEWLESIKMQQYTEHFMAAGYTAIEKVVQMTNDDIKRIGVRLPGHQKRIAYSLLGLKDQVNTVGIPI

[8] = biological target: Receptor tyrosine-protein kinase erbB-2 (Homo sapiens) (UniProt P04626); assay: Inhibition of recombinant human His-tagged HER2 cytoplasmic domain (676 to 1255 residues) expressed in baculovirus expression system at 10 uM by Z'-LYTE assay relative to control
[9] = biological target: Receptor-type tyrosine-protein kinase FLT3 (Homo sapiens) (UniProt P36888); assay: Inhibition of recombinant human His-tagged FLT3 cytoplasmic domain (564 to 958 residues) expressed in baculovirus expression system at 10 uM by Z'-LYTE assay relative to control
[10] = biological target: Glycogen synthase kinase-3 beta (Homo sapiens) (UniProt P49841); assay: Inhibition of full length recombinant human His-tagged GSK3beta expressed in baculovirus expression system at 10 uM by Z'-LYTE assay relative to control
[11] = biological target: Insulin-like growth factor 1 receptor (Homo sapiens) (UniProt P08069); assay: Inhibition of recombinant human C-terminal His-tagged IGF1R cytoplasmic domain (960 to 1397 residues) expressed in baculovirus expression system at 10 uM by Z'-LYTE assay relative to control
Insulin-like growth factor 1 receptor (Homo sapiens), sequence (P08069 31-736 limits assumed): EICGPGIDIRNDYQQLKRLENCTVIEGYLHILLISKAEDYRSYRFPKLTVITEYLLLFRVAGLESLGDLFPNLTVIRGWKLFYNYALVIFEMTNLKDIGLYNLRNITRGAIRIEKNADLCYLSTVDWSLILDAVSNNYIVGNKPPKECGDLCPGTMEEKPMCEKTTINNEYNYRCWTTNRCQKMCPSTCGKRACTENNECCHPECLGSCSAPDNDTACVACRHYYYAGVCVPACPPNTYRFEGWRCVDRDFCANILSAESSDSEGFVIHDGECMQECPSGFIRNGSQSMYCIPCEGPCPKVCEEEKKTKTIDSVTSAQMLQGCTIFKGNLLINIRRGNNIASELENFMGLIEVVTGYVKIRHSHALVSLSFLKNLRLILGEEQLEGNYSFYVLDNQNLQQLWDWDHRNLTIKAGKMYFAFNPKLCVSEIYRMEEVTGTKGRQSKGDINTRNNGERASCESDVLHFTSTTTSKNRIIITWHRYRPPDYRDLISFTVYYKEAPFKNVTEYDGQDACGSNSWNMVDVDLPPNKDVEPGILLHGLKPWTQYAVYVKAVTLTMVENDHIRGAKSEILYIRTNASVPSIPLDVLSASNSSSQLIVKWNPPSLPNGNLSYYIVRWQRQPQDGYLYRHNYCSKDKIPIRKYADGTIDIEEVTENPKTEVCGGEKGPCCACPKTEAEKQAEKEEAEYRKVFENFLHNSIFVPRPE
Insulin-like growth factor 1 receptor (Homo sapiens), sequence (P08069 741-1367 limits assumed): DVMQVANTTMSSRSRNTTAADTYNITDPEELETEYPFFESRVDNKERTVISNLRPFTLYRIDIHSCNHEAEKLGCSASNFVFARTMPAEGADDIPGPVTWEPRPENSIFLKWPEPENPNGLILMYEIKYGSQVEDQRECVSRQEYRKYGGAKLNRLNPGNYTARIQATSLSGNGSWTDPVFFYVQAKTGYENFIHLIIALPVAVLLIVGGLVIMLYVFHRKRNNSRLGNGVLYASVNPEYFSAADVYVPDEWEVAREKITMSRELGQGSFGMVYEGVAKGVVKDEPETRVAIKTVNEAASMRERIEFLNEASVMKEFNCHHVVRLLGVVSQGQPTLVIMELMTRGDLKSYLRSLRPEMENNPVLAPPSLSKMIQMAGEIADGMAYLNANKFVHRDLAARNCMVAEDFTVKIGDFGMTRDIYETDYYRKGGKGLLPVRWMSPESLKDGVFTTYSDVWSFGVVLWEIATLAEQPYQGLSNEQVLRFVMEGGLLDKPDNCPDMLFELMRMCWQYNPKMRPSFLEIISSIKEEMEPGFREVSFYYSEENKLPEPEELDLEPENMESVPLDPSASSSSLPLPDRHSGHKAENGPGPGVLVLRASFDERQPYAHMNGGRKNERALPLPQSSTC

[12] = biological target: Insulin receptor (Homo sapiens) (UniProt P06213); assay: Inhibition of recombinant human GST-tagged INSR cytoplasmic domain (1011 to 1382 residues) expressed in baculovirus expression system at 10 uM by Z'-LYTE assay relative to control
Insulin receptor (Homo sapiens), sequence (P06213 28-758 limits assumed): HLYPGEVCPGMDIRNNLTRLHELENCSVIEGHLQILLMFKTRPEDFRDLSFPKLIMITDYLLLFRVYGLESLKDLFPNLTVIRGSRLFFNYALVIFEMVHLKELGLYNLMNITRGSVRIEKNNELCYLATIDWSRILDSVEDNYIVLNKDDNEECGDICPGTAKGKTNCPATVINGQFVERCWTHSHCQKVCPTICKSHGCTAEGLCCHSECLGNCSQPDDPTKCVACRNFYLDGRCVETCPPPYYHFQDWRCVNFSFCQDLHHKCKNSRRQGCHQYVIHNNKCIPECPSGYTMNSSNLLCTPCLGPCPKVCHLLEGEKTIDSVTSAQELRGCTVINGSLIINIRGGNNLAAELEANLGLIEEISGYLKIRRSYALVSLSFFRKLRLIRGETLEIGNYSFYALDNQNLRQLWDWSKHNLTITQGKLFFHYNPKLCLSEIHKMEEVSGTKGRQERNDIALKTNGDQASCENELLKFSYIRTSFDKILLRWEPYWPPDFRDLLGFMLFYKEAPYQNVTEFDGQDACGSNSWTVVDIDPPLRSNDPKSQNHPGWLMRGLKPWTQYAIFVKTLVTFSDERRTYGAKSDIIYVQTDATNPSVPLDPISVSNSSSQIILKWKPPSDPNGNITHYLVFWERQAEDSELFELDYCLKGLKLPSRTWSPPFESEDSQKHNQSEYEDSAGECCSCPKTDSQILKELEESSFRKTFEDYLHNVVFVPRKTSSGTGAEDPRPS
Insulin receptor (Homo sapiens), sequence (P06213 763-1382 limits assumed): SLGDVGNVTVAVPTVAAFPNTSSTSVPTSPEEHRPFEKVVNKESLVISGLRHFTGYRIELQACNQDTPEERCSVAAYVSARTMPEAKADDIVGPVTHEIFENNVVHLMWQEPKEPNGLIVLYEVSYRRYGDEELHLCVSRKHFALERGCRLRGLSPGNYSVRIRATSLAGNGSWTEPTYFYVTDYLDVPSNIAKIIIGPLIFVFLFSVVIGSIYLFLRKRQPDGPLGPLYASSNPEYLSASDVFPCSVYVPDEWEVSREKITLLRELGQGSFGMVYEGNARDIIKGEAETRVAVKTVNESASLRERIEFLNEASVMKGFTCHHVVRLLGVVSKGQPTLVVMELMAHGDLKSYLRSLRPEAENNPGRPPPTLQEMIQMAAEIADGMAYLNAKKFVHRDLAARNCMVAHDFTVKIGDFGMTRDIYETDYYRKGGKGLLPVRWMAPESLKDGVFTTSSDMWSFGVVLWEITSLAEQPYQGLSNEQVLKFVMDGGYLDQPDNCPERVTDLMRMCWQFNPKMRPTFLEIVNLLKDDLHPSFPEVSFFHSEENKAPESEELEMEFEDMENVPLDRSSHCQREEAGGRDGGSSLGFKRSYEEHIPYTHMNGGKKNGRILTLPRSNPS

[13] = biological target: Interleukin-1 receptor-associated kinase 4 (Homo sapiens) (UniProt Q9NWZ3); assay: Inhibition of full length recombinant human His-tagged IRAK4 expressed in baculovirus expression system at 10 uM by Z'-LYTE assay relative to control
[14] = biological target: Tyrosine-protein kinase JAK3 (Homo sapiens) (UniProt P52333); assay: Inhibition of recombinant human GST-tagged JAK3 catalytic domain (781 to 1124 residues) expressed in baculovirus expression system at 10 uM by Z'-LYTE assay relative to control
[15] = biological target: Mast/stem cell growth factor receptor Kit (Homo sapiens) (UniProt P10721); assay: Inhibition of KIT (unknown origin) at 10 uM by Z'-LYTE assay relative to control
[16] = biological target: High affinity nerve growth factor receptor (Homo sapiens) (UniProt P04629); assay: Inhibition of recombinant human His-tagged TRKA cytoplasmic domain (441 to 796 residues) expressed in baculovirus expression system at 10 uM by Z'-LYTE assay relative to control
[17] = biological target: Hepatocyte growth factor receptor (Homo sapiens) (UniProt P08581); assay: Inhibition of recombinant human His-tagged MET cytoplasmic domain (956 to 1390 residues) expressed in baculovirus expression system at 10 uM by Z'-LYTE assay relative to control
[18] = biological target: Dual specificity mitogen-activated protein kinase kinase 1 (Homo sapiens) (UniProt Q02750); assay: Inhibition of full length recombinant human His-tagged MEK1 expressed in baculovirus expression system at 10 uM by Z'-LYTE assay relative to control
[19] = biological target: Mitogen-activated protein kinase 14 (Homo sapiens, UniProt Q16539); assay: Inhibition of full length recombinant human GST-tagged p38alpha expressed in Escherichia coli at 10 uM by Z'-LYTE assay relative to control
Mitogen-activated protein kinase 14, sequence (Q16539 whole entry): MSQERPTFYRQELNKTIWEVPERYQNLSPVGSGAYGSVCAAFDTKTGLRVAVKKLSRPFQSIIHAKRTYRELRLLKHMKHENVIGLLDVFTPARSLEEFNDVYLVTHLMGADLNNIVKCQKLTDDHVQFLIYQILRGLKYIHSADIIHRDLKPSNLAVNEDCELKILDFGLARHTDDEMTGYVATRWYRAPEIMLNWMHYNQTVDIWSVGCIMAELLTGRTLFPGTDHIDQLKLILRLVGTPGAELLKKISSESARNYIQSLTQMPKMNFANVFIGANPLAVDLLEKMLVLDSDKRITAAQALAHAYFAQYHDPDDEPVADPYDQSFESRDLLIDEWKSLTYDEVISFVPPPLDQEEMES

[20] = biological target: Mitogen-activated protein kinase 3 (Homo sapiens) (UniProt P27361); assay: Inhibition of full length recombinant human GST-tagged ERK1 expressed in Escherichia coli at 10 uM by Z'-LYTE assay relative to control
[21] = biological target: Phosphorylase b kinase gamma catalytic chain, liver/testis isoform (Homo sapiens) (UniProt P15735); assay: Inhibition of full length recombinant human GST-tagged PHKG2 expressed in baculovirus expression system at 10 uM relative to control
Phosphorylase b kinase gamma catalytic chain, liver/testis isoform (Homo sapiens), sequence (P15735 whole entry, canonical isoform): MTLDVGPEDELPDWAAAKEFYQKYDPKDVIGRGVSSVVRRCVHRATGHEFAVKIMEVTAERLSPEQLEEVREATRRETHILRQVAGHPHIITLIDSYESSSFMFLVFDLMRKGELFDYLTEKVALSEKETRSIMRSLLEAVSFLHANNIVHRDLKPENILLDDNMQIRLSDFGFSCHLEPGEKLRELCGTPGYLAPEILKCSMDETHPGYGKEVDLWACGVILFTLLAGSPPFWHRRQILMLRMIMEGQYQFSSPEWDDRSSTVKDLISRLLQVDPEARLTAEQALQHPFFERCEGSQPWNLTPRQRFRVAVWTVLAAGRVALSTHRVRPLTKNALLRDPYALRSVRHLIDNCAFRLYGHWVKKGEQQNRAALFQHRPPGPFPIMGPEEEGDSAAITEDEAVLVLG

[22] = biological target: Serine/threonine-protein kinase pim-1 (Homo sapiens) (UniProt P11309); assay: Inhibition of full length recombinant human His-tagged PIM1 expressed in baculovirus expression system at 10 uM relative to control
[23] = biological target: Proto-oncogene tyrosine-protein kinase receptor Ret (Homo sapiens) (UniProt P07949); assay: Inhibition of recombinant human GST-tagged RET cytoplasmic domain (658 to 1114 residues) expressed in baculovirus expression system at 10 uM relative to control
[24] = biological target: Ribosomal protein S6 kinase beta-1 (Homo sapiens) (UniProt P23443); assay: Inhibition of recombinant human GST-tagged p70S6K catalytic domain (1 to 421 residues) expressed in baculovirus expression system at 10 uM relative to control
[25] = biological target: Aurora kinase A (Homo sapiens) (UniProt O14965); assay: Inhibition of full length recombinant human His-tagged Aurora A expressed in baculovirus expression system at 10 uM by Z'-LYTE assay relative to control
[26] = biological target: Tyrosine-protein kinase SYK (Homo sapiens) (UniProt P43405); assay: Inhibition of recombinant human N-terminal GST-tagged SYK cytoplasmic domain expressed in baculovirus expression system at 10 uM by Z'-LYTE assay relative to control
[27] = biological target: Angiopoietin-1 receptor (Homo sapiens) (UniProt Q02763); assay: Inhibition of recombinant human GST-tagged TIE2 cytoplasmic domain (817 to 1101 residues) expressed in baculovirus expression system at 10 uM by Z'-LYTE assay relative to control

CC1=Nc2c(Sc3ccccc3)ncnc2Sc2ccccc21
inhibition [1]: 15%
inhibition [2]: 12%
inhibition [3]: 8%
inhibition [4]: 3%
inhibition [5]: 6%
inhibition [6]: 8%
inhibition [7]: 9%
inhibition [8]: -4%
inhibition [9]: 6%
inhibition [10]: 7%
inhibition [11]: 2%
inhibition [12]: 2%
inhibition [13]: 3%
inhibition [14]: -1%
inhibition [15]: 3%
inhibition [16]: 2%
inhibition [17]: 14%
inhibition [18]: 2%
inhibition [19]: 74%
inhibition [20]: 5%
inhibition [21]: 2%
inhibition [22]: 3%
inhibition [23]: 7%
inhibition [24]: 1%
inhibition [25]: 6%
inhibition [26]: -3%
inhibition [27]: 11%
